Target: human PAD4 (Homo sapiens (Human), UniProt Q9UM07)
Assay: In Vitro PAD4 BAEE Biochemical Assay
Details: geometric mean of multiple experiments
Method in brief: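 Recombinant human PAD4 (His-SUMO tag removed, E. coli-expressed), 5 nM, preincubated with compound and 2 mM CaCl2 30 min at 25 °C in MOPS pH 7.6 with DTT; 3 mM BAEE added for 2 h at 25 °C, EDTA stop. Released ammonia detected by o-phthalaldehyde/DTT fluorescence (ex 405, em 535 nm).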

[1] = recombinant PAD4 5 nM, 2 mM calcium chloride, 3 mM BAEE substrate

Sequence of human PAD4 (Q9UM07 2-663): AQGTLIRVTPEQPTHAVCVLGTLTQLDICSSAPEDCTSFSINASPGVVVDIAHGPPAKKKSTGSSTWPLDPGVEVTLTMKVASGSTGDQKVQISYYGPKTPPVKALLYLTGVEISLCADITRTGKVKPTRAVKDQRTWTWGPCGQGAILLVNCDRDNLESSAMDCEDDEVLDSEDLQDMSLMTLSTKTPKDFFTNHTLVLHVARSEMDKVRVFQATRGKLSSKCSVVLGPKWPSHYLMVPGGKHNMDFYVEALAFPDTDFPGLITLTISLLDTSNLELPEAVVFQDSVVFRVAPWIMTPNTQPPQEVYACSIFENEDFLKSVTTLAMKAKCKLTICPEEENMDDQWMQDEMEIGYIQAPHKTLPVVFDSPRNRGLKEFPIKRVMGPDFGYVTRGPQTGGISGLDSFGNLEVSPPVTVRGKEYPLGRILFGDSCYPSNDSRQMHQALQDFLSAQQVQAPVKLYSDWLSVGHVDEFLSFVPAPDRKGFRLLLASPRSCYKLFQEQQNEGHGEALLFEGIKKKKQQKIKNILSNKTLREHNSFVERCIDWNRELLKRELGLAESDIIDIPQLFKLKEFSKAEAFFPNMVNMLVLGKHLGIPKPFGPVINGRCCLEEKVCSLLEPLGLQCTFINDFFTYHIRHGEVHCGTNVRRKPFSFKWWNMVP

Row | Compound | IC50 [1] | IC50 (human PAD4, BAEE substrate, 5 nM PAD4, 2 mM calcium chloride, 3 mM BAEE)
1 | COc1cc(C(=O)N2C[C@H](N)[C@@H]3CC[C@H]2C3)cc2nc(-c3cc4ccc([C@@H](C)NC(=O)C5(F)CC5)nc4n3CC3CC3)n(C)c12 [Example 326, N-((R)-1-(2-(5-((1S,4R,5R)-4-amino-2-azabicyclo[3.2.1]octane-2-carbonyl)-7-methoxy-1-methyl-1H-benzo[d]imidazol-2-yl)-1-(cyclopropylmethyl)-1H-pyrrolo[2,3-b]pyridin-6-yl)ethyl)-1-fluorocyclopropane-1-carboxamide] | 103 nM | 
2 | COc1cc(C(=O)N2C[C@H](N)[C@@H]3CC[C@H]2C3)cc2nc(-c3cc4ccc([C@@H](C)NC(=O)C5(F)CCC5)nc4n3CC3CC3)n(C)c12 [Example 327, N-((R)-1-(2-(5-((1S,4R,5R)-4-amino-2-azabicyclo[3.2.1]octane-2-carbonyl)-7-methoxy-1-methyl-1H-benzo[d]imidazol-2-yl)-1-(cyclopropylmethyl)-1H-pyrrolo[2,3-b]pyridin-6-yl)ethyl)-1-fluorocyclobutane-1-carboxamide] | 88.4 nM | 
3 | COc1cc(C(=O)N2C[C@H](N)[C@@H]3CC[C@H]2C3)cc2nc(-c3cc4ccc([C@@H](C)NC(=O)C5(C)CC(F)(F)C5)nc4n3CC3CC3)n(C)c12 [Example 328, N-((R)-1-(2-(5-((1S,4R,5R)-4-amino-2-azabicyclo[3.2.1]octane-2-carbonyl)-7-methoxy-1-methyl-1H-benzo[d]imidazol-2-yl)-1-(cyclopropylmethyl)-1H-pyrrolo[2,3-b]pyridin-6-yl)ethyl)-3,3-difluoro-1-methylcyclobutane-1-carboxamide] | 101 nM | 
4 | COc1cc(C(=O)N2C[C@H](N)[C@@H]3CC[C@H]2C3)cc2nc(-c3cc4ccc([C@@H](C)NC(=O)C(C)(C)CC(F)(F)F)nc4n3CC3CC3)n(C)c12 [Example 329, N-((R)-1-(2-(5-((1S,4R,5R)-4-amino-2-azabicyclo[3.2.1]octane-2-carbonyl)-7-methoxy-1-methyl-1H-benzo[d]imidazol-2-yl)-1-(cyclopropylmethyl)-1H-pyrrolo[2,3-b]pyridin-6-yl)ethyl)-4,4,4-trifluoro-2,2-dimethylbutanamide] | 129 nM | 
5 | COc1cc(C(=O)N2C[C@H](N)[C@@H]3CC[C@H]2C3)cc2nc(-c3cc4ccc([C@@H](C)NC(=O)C(C)(C)C)nc4n3CC(C)(C)O)n(C)c12 [Example 330, N-((R)-1-(2-(5-((1S,4R,5R)-4-amino-2-azabicyclo[3.2.1]octane-2-carbonyl)-7-methoxy-1-methyl-1H-benzo[d]imidazol-2-yl)-1-(2-hydroxy-2-methylpropyl)-1H-pyrrolo[2,3-b]pyridin-6-yl)ethyl)pivalamide] | 253 nM | 
6 | COc1cc(C(=O)N2C[C@H](N)[C@@H]3CC[C@H]2C3)cc2nc(-c3cc4ccc([C@@H](C)NC(=O)[C@]5(C)CC5(F)F)nc4n3CC3CC3)n(C)c12 [Example 331, (S)-N-((R)-1-(2-(5-((1S,4R,5R)-4-amino-2-azabicyclo[3.2.1]octane-2-carbonyl)-7-methoxy-1-methyl-1H-benzo[d]imidazol-2-yl)-1-(cyclopropylmethyl)-1H-pyrrolo[2,3-b]pyridin-6-yl)ethyl)-2,2-difluoro-1-methylcyclopropane-1-carboxamide] | 71 nM | 
7 | COc1cc(C(=O)N2C[C@H](N)[C@@H]3CC[C@H]2C3)cc2nc(-c3cc4ccc([C@@H](C)NC(=O)[C@@]5(C)CC5(F)F)nc4n3CC3CC3)n(C)c12 [Example 332, (R)-N-((R)-1-(2-(5-((1S,4R,5R)-4-amino-2-azabicyclo[3.2.1]octane-2-carbonyl)-7-methoxy-1-methyl-1H-benzo[d]imidazol-2-yl)-1-(cyclopropylmethyl)-1H-pyrrolo[2,3-b]pyridin-6-yl)ethyl)-2,2-difluoro-1-methylcyclopropane-1-carboxamide] | 84.2 nM | 
8 | (S)-2-(1-(cyclopropylmethyl)-6- ((N-(difluoromethyl) methyl)sulfonamido)-1H- pyrrolo[2,3-b]pyridin-2-yl)- N-(4,4-difluoropiperidin- 3-yl)-6-fluoro- 1-methyl-1H-benzo[d] imidazole-5-carboxamide [Example 92] |  | 617 nM

— US11878965B2, “Inhibitors of peptidylarginine deiminases” (Gilead Sciences, Inc., priority 2020, dated 2024)
